Test results reported in the Deep4Chem optical property database.
Each block holds one molecule with its values, some of them ahead of it.

Assay: solvent given as SMILES
[1] = in c1cc(-c2cccc(-n3c4ccccc4c4ccccc43)c2)cc(-n2c3ccccc3c3ccccc32)c1

Compound: CCc1c(C)c2n(c1C)[B-](F)(F)[N+]1=C(c3ccc[nH]3)c3ccccc3C1=C2
emission maximum (in C1CCOC1): 631 nm
emission maximum (in CC#N): 628 nm
emission maximum (in CCCCCC): 626 nm
emission maximum (in CO): 628 nm
emission maximum (in Cc1ccccc1): 635 nm
emission maximum (in ClCCl): 634 nm

Compound: CC(C)(C)c1ccc(C2=c3sc4ccccc4c3=[N+]3C2=Nc2c(-c4ccc(C(C)(C)C)cc4)c4sc5ccccc5c4n2[B-]3(F)F)cc1
emission maximum (in C1CCOC1): 800 nm
emission maximum (in Cc1ccccc1): 796 nm
emission maximum (in ClC(Cl)Cl): 794 nm

Compound: CC(C)(C)c1ccc2c(c1)c1cc(C(C)(C)C)ccc1n2-c1ccc(C(=CC#N)c2ccc(-n3c4ccc(C(C)(C)C)cc4c4cc(C(C)(C)C)ccc43)cc2)cc1
emission maximum (in Cc1ccccc1): 450 nm

Compound: c1ccc(-c2nc3c(ccc4[nH]ccc43)o2)cc1
emission maximum (in C1CCCCC1): 372 nm
emission maximum (in C1COCCO1): 409 nm
emission maximum (in CC#N): 427 nm
emission maximum (in CO): 437 nm
emission maximum (in Cc1ccccc1): 390 nm
emission maximum (in O): 459 nm

Compound: CC(C)c1cc(C(C)C)c(B2c3cc(N4c5ccccc5C(C)(C)c5ccccc54)ccc3N(c3ccccc3)c3ccc(N4c5ccccc5C(C)(C)c5ccccc54)cc32)c(C(C)C)c1
emission maximum (in C1CCOC1): 485.71 nm
emission maximum (in CCOC(C)=O): 481.97 nm
emission maximum (in Cc1ccccc1): 469.39 nm
emission maximum (in ClCCl): 494.56 nm
emission maximum [1]: 469 nm

Compound: C[Si]1(C)C2=C(c3ccc(N(c4ccccc4)c4ccccc4)cc31)P(=O)(c1ccccc1)c1ccccc12 (stereo not drawn)
emission maximum (in CC#N): 611 nm
emission maximum (in CO): 624 nm
emission maximum (in Cc1ccccc1): 544 nm

Compound: COc1cccc(OC)c1C1=C2C(C)=CC(C)=[N+]2[B-](F)(F)n2c(C)cc(C)c21
emission maximum (in C1CCOC1): 520 nm
emission maximum (in CC#N): 513 nm
emission maximum (in CC(=O)C(C)(C)C): 520 nm
emission maximum (in CC(C)=O): 516 nm
emission maximum (in CCCCCC): 519 nm
emission maximum (in CCOC(C)=O): 520 nm
emission maximum (in CO): 518 nm

Compound: CC(C)(C)c1ccc2c(c1)c1cc(C(C)(C)C)cc3c1n2-c1cc(-c2ccc(F)cc2)cc2c1B3c1cc(C(C)(C)C)cc3c4cc(C(C)(C)C)ccc4n-2c13
emission maximum (in Cc1ccccc1): 496.94 nm

Compound: CC(C)(C)c1ccc(N(c2ccc(C(C)(C)C)cc2)c2ccc(S(=O)(=O)c3ccc(N(c4ccc(C(C)(C)C)cc4)c4ccc(C(C)(C)C)cc4)cc3)cc2)cc1
emission maximum (in Cc1ccccc1): 419 nm
emission maximum (in O=P(c1ccccc1)(c1ccccc1)c1ccccc1Oc1ccccc1P(=O)(c1ccccc1)c1ccccc1): 430 nm

Compound: CC1(CCCCC(=O)NCCCCCCO)C(/C=C/C=C/C=C2/N(CCCS(=O)(=O)[O-])c3ccc(S(=O)(=O)[O-])cc3C2(C)C)=[N+](CCCS(=O)(=O)[O-])c2ccc(S(=O)(=O)[O-])cc21 (stereo not drawn)
emission maximum (in O): 672 nm

Compound: CC(C)c1cc(C(C)C)c(B2c3ccccc3Oc3cc(N4c5ccccc5C(C)(C)c5ccccc54)ccc32)c(C(C)C)c1
emission maximum (in Cc1ccccc1): 475 nm

Compound: CC(C)(C)c1cc2ccc3c(-c4ccc(N(c5ccccc5)c5ccccc5)cc4)ccc4c5nc6cc(C#N)c(C#N)cc6nc5c(c1)c2c34
emission maximum (in C1CCOC1): 839.18 nm
emission maximum (in CCCCCC): 575.31 nm
emission maximum (in Cc1ccccc1): 613 nm
emission maximum (in ClC(Cl)Cl): 784.69 nm
emission maximum (in ClCCl): 839.18 nm

Compound: c1ccc(/C(=C(\c2ccccc2)c2ccccc2-c2ccc(-c3ccccc3)cc2)c2ccccc2-c2ccc(-c3ccccc3)cc2)cc1
emission maximum (in C1CCOC1): 492 nm

Compound: CC(C)(C)c1ccc2c(c1)c1cc(C(C)(C)C)ccc1n2-c1ccc(S(=O)(=O)c2ccc(S(=O)(=O)c3ccc(-n4c5ccc(C(C)(C)C)cc5c5cc(C(C)(C)C)ccc54)cc3)cc2)cc1
emission maximum (in Cc1ccccc1): 446 nm

Compound: Cc1ccccc1N(c1ccccc1C)c1ccc2ccc3c(N(c4ccccc4C)c4ccccc4C)ccc4ccc1c2c43
emission maximum (in Cc1ccccc1): 452 nm

Compound: O=[N+]([O-])c1ccc(/C2=C3N=C(C(c4ccccc4)=C/3c3ccccc3)/C(c3ccc([N+](=O)[O-])cc3)=c3\[nH]/c(c(-c4ccccc4)c3-c3ccccc3)=C(/c3ccc([N+](=O)[O-])cc3)C3=N/C(=C(/c4ccc([N+](=O)[O-])cc4)c4[nH]c2c(-c2ccccc2)c4-c2ccccc2)C(c2ccccc2)=C3c2ccccc2)cc1
emission maximum (in ClCCl): 745 nm

Compound: CCCCN(CCCC)c1ccc2c#cc3cc4c#cc5ccc(N(CCCC)CCCC)cc5c#cc#cc5cc(C(F)(F)F)ccc5c#cc4cc3c#cc3ccc(C(F)(F)F)cc3c#cc#cc2c1
emission maximum (in ClCCl): 544 nm
emission maximum (in c1ccccc1): 501 nm

Compound: COc1ccc(C2=CC(c3ccc(OC)cc3)=[O+][B-](C(C)=O)(C(C)=O)O2)cc1
emission maximum (in CC#N): 435 nm
emission maximum (in ClC(Cl)(Cl)Cl): 420 nm

Compound: N#Cc1c(-n2c3ccc(Br)cc3c3cc(Br)ccc32)c(C#N)c(-n2c3ccc(Br)cc3c3cc(Br)ccc32)c(-n2c3ccc(Br)cc3c3cc(Br)ccc32)c1-n1c2ccc(Br)cc2c2cc(Br)ccc21
emission maximum (in Cc1ccccc1): 521 nm

Compound: c1ccc(C(=C(c2ccccc2)c2ccc(-c3ccc(-c4nc5c(-c6ccc(-c7ccc(C(=C(c8ccccc8)c8ccccc8)c8ccccc8)cc7)cc6)sc(-c6ccc(-c7ccc(C(=C(c8ccccc8)c8ccccc8)c8ccccc8)cc7)cc6)c5nc4-c4ccc(-c5ccc(C(=C(c6ccccc6)c6ccccc6)c6ccccc6)cc5)cc4)cc3)cc2)c2ccccc2)cc1
emission maximum (in Cc1ccccc1): 637 nm
emission maximum (in ClCCl): 647 nm

Compound: Nc1ccc(/C=C2\OC(=O)c3ccccc32)cc1
emission maximum (in CC#N): 547.95 nm
emission maximum (in CC(C)=O): 390.02 nm
emission maximum (in CC(C)CO): 547.65 nm
emission maximum (in CC(C)O): 548.25 nm
emission maximum (in CCCO): 549.75 nm
emission maximum (in CCO): 552.49 nm
emission maximum (in CCOC(C)=O): 503.52 nm
emission maximum (in CCOCC): 485.91 nm
emission maximum (in CO): 552.49 nm

Compound: CC1(C)c2ccccc2N(c2ccc3nc4c5ccc(N6c7ccccc7C(C)(C)c7ccccc76)cc5c5cc(N6c7ccccc7C(C)(C)c7ccccc76)ccc5c4nc3c2)c2ccccc21
emission maximum (in Cc1ccccc1): 605 nm
emission maximum [1]: 590 nm

Compound: CCOC(=O)/C(C#N)=C\c1ccc2c(c1)c1ccccc1n2-c1ccc(C)cc1
emission maximum (in C1CCOC1): 461 nm
emission maximum (in CC#N): 508 nm
emission maximum (in CC(C)=O): 503 nm
emission maximum (in CCOC(C)=O): 460 nm
emission maximum (in CO): 495 nm
emission maximum (in CS(C)=O): 503 nm
emission maximum (in Cc1ccccc1): 444 nm
emission maximum (in ClC(Cl)Cl): 482 nm

Compound: N#CC(C#N)=Cc1cn(-c2ccccc2)nc1-c1ccccc1
emission maximum (in C1CCOC1): 427 nm
emission maximum (in C1COCCO1): 426 nm
emission maximum (in CCO): 426 nm
emission maximum (in CCOC(C)=O): 427 nm
emission maximum (in CN(C)C=O): 438 nm
emission maximum (in CO): 426 nm
emission maximum (in CS(C)=O): 443 nm
emission maximum (in Cc1ccccc1): 430 nm
emission maximum (in ClC(Cl)Cl): 432 nm
emission maximum (in ClCCl): 430 nm

Compound: O=C(Cc1ccccc1)OCc1ccc2c3cccc4cccc(c5cccc1c52)c43
emission maximum (in CCO): 445 nm

Compound: CCCCCCOc1ccc(N(c2ccc(OCCCCCC)cc2)c2ccc(-c3sc(-c4ccc(N(c5ccc(OCCCCCC)cc5)c5ccc(OCCCCCC)cc5)cc4)c4nc(-c5ccc(OC)cc5)c(-c5ccc(OC)cc5)nc34)cc2)cc1
emission maximum (in ClCCl): 752 nm

Further lines, results first:

emission maximum (in O): 522 nm
Compound: CC[n+]1c(-c2ccccc2)c2cc(NC(=O)N[C@H]3C[C@@H]([NH3+])[C@H](O)[C@@H](O)[C@@H]3O)ccc2c2ccc(NC(=O)N[C@@H]3C[C@H]([NH3+])[C@@H](O)[C@@H](O)[C@H]3O)cc21

emission maximum (in C1CCOC1): 503 nm
Compound: C1=C(c2ccccc2)C=C(c2ccccc2)/C1=C/c1ccc(-c2cccs2)s1

emission maximum (in ClC(Cl)Cl): 416 nm
Compound: CCc1cc(CC)cc(-n2c3ccccc3c3cc4c(cc32)c2ccccc2n4-c2cc(CC)cc(CC)c2)c1

emission maximum (in C1CCOC1): 460 nm
Compound: COc1cc2c(cc1-c1ccc(C#N)cc1)Cc1c3c(c4c(c1-2)-c1cc(OC)c(-c2ccc(C#N)cc2)cc1C4)C(=O)N(CCC(C)C)C3=O

emission maximum (in ClCCl): 338 nm
Compound: Cn1nc(-c2ccccc2)cc1-c1ccccc1

emission maximum (in C1COCCO1): 411 nm
Compound: c1ccc(-c2nc(-c3nc(-c4ccccc4)c(-c4ccccc4)o3)oc2-c2ccccc2)cc1

emission maximum (in ClC(Cl)Cl): 518 nm
Compound: C[Si]1(C)O[Si](C)(C)c2cc3cc4cc5c(cc4cc3cc21)C(=O)c1cc2cc3cc4c(cc3cc2cc1C5=O)[Si](C)(C)O[Si]4(C)C

emission maximum (in CC#N): 497 nm
emission maximum (in ClCCl): 478 nm
Compound: Cc1cc(O)c(C(=O)/C=C/c2ccc(Cl)cc2)c(=O)o1

emission maximum (in CC1CCCO1): 489 nm
Compound: Cn1c2nc(=O)[nH]c(=O)c-2nc2ccccc21

emission maximum (in CC#N): 469 nm
Compound: O=c1oc2cc3c(cc2cc1/C=C/c1ccccc1)OCO3

emission maximum (in ClCCl): 478 nm
Compound: Cc1c(C(=O)c2ccccc2)c2ccc3cccc4c5cccc6ccc1c(c65)c2c34

emission maximum (in CN(C)C=O): 687 nm
Compound: COC(=O)C(N)Cc1ccc(O[Si]2(Oc3ccc(CC(N)C(=O)OC)cc3)n3c4c5ccccc5c3/N=C3N=C(/N=c5/c6ccccc6/c(n52)=N/C2=NC(=N\4)/c4ccccc42)c2ccccc2\3)cc1 (stereo not drawn)

emission maximum (in ClCCl): 390 nm
Compound: C[Si]1(C)C(c2ccccc2)=Cc2ccccc21

emission maximum (in ClCCl): 445 nm
Compound: CCCCn1c(-c2ccc(-c3nnc(-c4ccc(-c5nc(-c6ccccc6)c(-c6ccccc6)n5CCCC)cc4)o3)cc2)nc(-c2ccccc2)c1-c1ccccc1

emission maximum (in C1CCOC1): 462 nm
Compound: COc1cc2c(cc1-c1ccc(C=O)cc1)Cc1c3c(c4c(c1-2)-c1cc(OC)c(-c2ccc(C=O)cc2)cc1C4)C(=O)N(CCC(C)C)C3=O

emission maximum (in C1COCCO1): 474 nm
Compound: COC(=O)c1ccc(/C=C2\N=C(c3ccc(OC)c(OC)c3)OC2=O)cc1

emission maximum (in CC1CCCO1): 318 nm
Compound: c1ccc2c(c1)-c1ccccc1C21c2ccccc2-c2cnccc21

emission maximum (in CCO): 446 nm
Compound: CC(C)(C)OC(=O)NCC(=O)OCc1ccc2c3cccc4cccc(c5cccc1c52)c43

emission maximum (in ClC(Cl)Cl): 668 nm
Compound: F[B-]1(F)n2c(cc3ccc4ccccc4c32)C(c2ccc(I)cc2)=C2C=C3CCc4ccccc4C3=[N+]21

emission maximum (in C1CCCCC1): 425 nm
Compound: C(#Cc1cnc(C#Cc2ccccc2)nc1)c1ccccc1

emission maximum (in ClC(Cl)Cl): 426 nm
Compound: COc1ccc2c(C#N)cc3ccc4cc(C#N)c5ccc(OC)cc5c4c3c2c1

emission maximum (in ClC(Cl)Cl): 480 nm
Compound: FC(F)(F)c1ccc(-c2nc(-c3ccc(C(F)(F)F)cc3)n3ccccc23)cc1

emission maximum (in CO): 808 nm
Compound: CC1(C)C(/C=C/C2=C(Cl)C(=C/C=C3/N(CCCCCC(=O)O)c4ccccc4C3(C)C)/CCC2)=[N+](CCCCCC(=O)O)c2ccccc21

emission maximum (in CC#N): 593 nm
Compound: COC(=O)/C=C/c1sc(-c2ccc(N(C)C)cc2)c(-c2cccnc2)c1N
